Literature values as cited in US6423677B1, “Cleaner/degreaser concentrate compositions” (Buckeye International, Inc., priority 1995, dated 2002).

Conditions: in water, ambient temperature

| Compound | aqueous ambient temperature solubility [wt. %] |
| --- | --- |
| CC(O)COc1ccccc1 (centres unmarked) [1-phenoxy-2-propanol] | 1.1 |
| OCCOc1ccccc1 [2-phenoxyethanol] | 2.3 |
| CCN(CC)c1ccccc1 [N,N-diethylaniline] | 1.4 |
| c1ccc(N2CCOCC2)cc1 [N-phenylmorpholine] | 1.0 |
| CC(=O)c1ccccc1 [acetophenone] | 0.5 |
| O=Cc1ccccc1 [benzaldehyde] | 0.3 |
| OCc1ccccc1 [benzyl alcohol] | 4.4 |
| O=C1CCCCC1 [cyclohexanone] | 2.3 |
| CCOC(=O)CCCCC(=O)OCC [diethyl adipate] | 0.43 |
| CCOC(=O)CCCC(=O)OCC [diethyl glutarate] | 0.88 |
| CCOC(=O)CC(=O)OCC [diethyl malonate] | 2.08 |
| CC1=CC(=O)CC(C)(C)C1 [isophorone] | 1.2 |
| CC(=O)CC(C)C [methylisobutyl ketone] | 2.0 |
| CCCCCOC(C)=O [n-amyl acetate] | 0.25 |
| CCCCCO [n-amyl alcohol] | 2.7 |
| CCCCOC(C)=O [n-butyl acetate] | 0.7 |
| CC[N+](=O)[O-] [nitroethane] | 4.5 |
| OCCc1ccccc1 [β-phenylethanol] | 1.6 |

Same assay, conditions: in water; solvents not useful in the invention

| Compound | aqueous solubility |
| --- | --- |
| CC(C)CC(=O)CC(C)C [2,6-dimethyl-4-heptanone] | 0.05 wt. % |
| CCCCC(CC)COCCO (centres unmarked) [2-(2-ethylhexoxy)-ethanol] | 0.095 wt. % |
| CN1CCCC1=O [N-methyl pyrrolidone] | infinite |
| CC1COC(=O)O1 (centres unmarked) [propylene carbonate] | 19.6 wt. % |
| COCC(C)OC(C)=O (centres unmarked) [propylene glycol monomethyl ether acetate] | 16.5 wt. % |
